# Results from patent publication EP3521435A1, “A HIGH STRINGENCY SELECTION SYSTEM FOR PROTEIN EXPRESSION IN PROLINE-AUXOTROPHIC CELLS” (Bayer AG, priority 2018, dated 2019).
# Tests used:
# CHO-K1 cells [1] = test: Batch fermentation in shake flasks of human IgG1 expressing stable cell populations (Poros A-HPLC titer, viable cell density, viability); format: cell-based, Chinese hamster; settings: human IgG1, pJF1576, non-selecting conditions
# CHO-K1 cells [2] = test: Cell viability post-transfection of transfected cell populations under selection conditions; format: cell-based, Chinese hamster
# Summary of the method: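 Suspension CHO-K1 nucleofected (1e7 cells, 5 µg linearized DNA) with GFP vectors carrying puromycin marker plus SV40-driven murine P5CS; seeded 2e5 viable cells/ml, selected with 10 µg/ml puromycin or in proline/ornithine-free medium ± added pressure, viability tracked over time. GFP read by flow cytometry (yellow channel, PI-excluded dead cells): MFI and % high fluorescers above set threshold.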
# [3] = MOCK, CD-Fusion w/o Pro + 5 mM Orn
smiles,measurement,setting,value
"NCCC[C@H](N)C(=O)O [Orn, L-Ornithine]",Batch titer day 7,CHO-K1 cells [1]; selected in CD-Fusion w/o Pro + 0.2 mM Orn + 10 µg/ml Puromycin,173 mg/L
same,Batch titer day 7,CHO-K1 cells [1]; selected in CD-Fusion w/o Pro + 0.2 mM Orn,120 mg/L
same,Batch titer day 7,CHO-K1 cells [1]; selected in CD-Fusion w/o Pro + 1 mM Orn + 10 µg/ml Puromycin,159 mg/L
same,Batch titer day 7,CHO-K1 cells [1]; selected in CD-Fusion w/o Pro + 1 mM Orn,135 mg/L
same,Batch titer day 7,CHO-K1 cells [1]; selected in CD-Fusion w/o Pro + 5 mM Orn + 10 µg/ml Puromycin,38 mg/L
same,Batch titer day 7,CHO-K1 cells [1]; selected in CD-Fusion w/o Pro + 5 mM Orn,9 mg/L
same,Viability on day 12 post-transfection,CHO-K1 cells [2]; [3],45%
same,Viability on day 14 post-transfection,CHO-K1 cells [2]; [3],43%
same,Viability on day 14 post-transfection,"CHO-K1 cells [2]; pJF1555, CD-Fusion w/o Pro + 0.2 mM Orn",83%
same,Viability on day 14 post-transfection,"CHO-K1 cells [2]; pJF1555, CD-Fusion w/o Pro + 0.2 mM Orn + 10 µg/ml Puromycin",73%
same,Viability on day 12 post-transfection,"CHO-K1 cells [2]; pJF1555, CD-Fusion w/o Pro + 0.25 mM Ornithine",88%
same,Viability on day 12 post-transfection,"CHO-K1 cells [2]; pJF1555, CD-Fusion w/o Pro + 0.5 mM Ornithine",87%
same,Viability on day 14 post-transfection,"CHO-K1 cells [2]; pJF1555, CD-Fusion w/o Pro + 1 mM Orn",87%
same,Viability on day 14 post-transfection,"CHO-K1 cells [2]; pJF1555, CD-Fusion w/o Pro + 1 mM Orn + 10 µg/ml Puromycin",75%
same,Viability on day 12 post-transfection,"CHO-K1 cells [2]; pJF1555, CD-Fusion w/o Pro + 1 mM Ornithine",91%
same,Viability on day 12 post-transfection,"CHO-K1 cells [2]; pJF1555, CD-Fusion w/o Pro + 2 mM Ornithine",49%
same,Viability on day 12 post-transfection,"CHO-K1 cells [2]; pJF1555, CD-Fusion w/o Pro + 3 mM Ornithine",36%
same,Viability on day 12 post-transfection,"CHO-K1 cells [2]; pJF1555, CD-Fusion w/o Pro + 4 mM Ornithine",55%
same,Viability on day 14 post-transfection,"CHO-K1 cells [2]; pJF1555, CD-Fusion w/o Pro + 5 mM Orn",51%
same,Viability on day 14 post-transfection,"CHO-K1 cells [2]; pJF1555, CD-Fusion w/o Pro + 5 mM Orn + 10 µg/ml Puromycin",13%
same,Viability on day 12 post-transfection,"CHO-K1 cells [2]; pJF1555, CD-Fusion w/o Pro + 5 mM Ornithine",53%
same,concentration at which recovery kinetics were affected,"CHO-K1 cells [2]; pJF1555, proline-free medium, Table 8",≥ 2 mM
